Experimental data from patent US5220016A, “Synthesis of navelbine analogs” (priority 1991, dated 1993).
Converted amounts (≈) assume the structure as drawn. Like-named read-outs stand apart in the source and are kept apart here.

Assays:
[1] = 72 hr cytotoxicity assay; in vitro antitumor activity; format: cell-based; settings: for in vitro antitumor activity: in words, compared with vinblastine
Protocol: The 18'(S)-epimer was tested in vitro for antitumor activity in comparison with the 18'(R)-epimer and vinblastine. IC50 's were determined in a 72 hr cytotoxicity assay.

[2] = cited from earlier work
[3] = compared with vinblastine and vincristine (Fellous et al., 1989)
[4] = 72 hr cytotoxicity assay, in vitro, cell line not given, read-out: IC50

## CC[C@]12C=CCN3CC[C@@]4(c5cc([C@]6(C(=O)OC)C[C@@H]7CCCN(Cc8c6[nH]c6ccccc86)C7)c(OC)cc5N(C)[C@H]4[C@@](O)(C(=O)OC)[C@@H]1OC(C)=O)[C@@H]32 [18'(R)-Dihydrodesethylnavelbine, (+)-18'R-4'-Desethyl-4'-deshydroxy-7'-norvinblastine]
[1]; 72 hr cytotoxicity assay, in vitro, cell line not given
  IC50: no activity
[1]
  in vitro antitumor activity: inactive

## CC[C@]12C=CCN3CC[C@@]4(c5cc([C@@]6(C(=O)OC)C[C@@H]7CCCN(Cc8c6[nH]c6ccccc86)C7)c(OC)cc5N(C)[C@H]4[C@@](O)(C(=O)OC)[C@@H]1OC(C)=O)[C@@H]32 [18'(S)-Dihydrodesethylnavelbine, (+)-18'S-4'-Desethyl-4'-deshydroxy-7'-norvinblastine]
[1]; 72 h
  IC50: 0.5 ng/mL (≈ 0.664 nM)
[1]
  in vitro antitumor activity: comparable to vinblastine

## CCC1=C[C@@H]2CN(C1)Cc1c([nH]c3ccccc13)[C@@](C(=O)OC)(c1cc3c(cc1OC)N(C)[C@H]1[C@@](O)(C(=O)OC)[C@H](OC(C)=O)[C@]4(CC)C=CCN5CC[C@]31[C@@H]54)C2 [Navelbine]
[2]; compared with Vinblastine
  cytotoxicity: decreased cytotoxicity compared with Vinblastine
[2]; [3]
  antitumor activity: broader antitumor activity
  neurotoxicity and other side effects: lower neurotoxicity and other side effects
[1]; [4]
  IC50: 5 ng/mL (≈ 6.42 nM)

## CC[C@]1(O)C[C@@H]2CN(CCc3c([nH]c4ccccc34)[C@@](C(=O)OC)(c3cc4c(cc3OC)N(C)[C@H]3[C@@](O)(C(=O)OC)[C@H](OC(C)=O)[C@]5(CC)C=CCN6CC[C@]43[C@@H]65)C2)C1 [Vinblastine]
[1]; [4]
  IC50: 0.5 ng/mL (≈ 0.617 nM)
